One test concerns CTLL-2 cell line. Put plainly: CTLL2 viability assay. It counts as cell-based. Particulars: Mus musculus, IL-2 dependent CTLL2 viability, 24 h, ATP-lite. From the text:
The protocol describes the methods to analyse the activity of compounds on their ability to sustain the IL2-dependent viability of CTLL2.
Final DMSO concentration was 0.1%.

Another test concerns the target T1, human TYK2 (Homo sapiens, UniProt P29597).
T1 construct: catalytic domain (amino acids 871-1187; catalog number 08-147); purchased Carna Biosciences 08-147
T1 sequence (P29597 871-1187): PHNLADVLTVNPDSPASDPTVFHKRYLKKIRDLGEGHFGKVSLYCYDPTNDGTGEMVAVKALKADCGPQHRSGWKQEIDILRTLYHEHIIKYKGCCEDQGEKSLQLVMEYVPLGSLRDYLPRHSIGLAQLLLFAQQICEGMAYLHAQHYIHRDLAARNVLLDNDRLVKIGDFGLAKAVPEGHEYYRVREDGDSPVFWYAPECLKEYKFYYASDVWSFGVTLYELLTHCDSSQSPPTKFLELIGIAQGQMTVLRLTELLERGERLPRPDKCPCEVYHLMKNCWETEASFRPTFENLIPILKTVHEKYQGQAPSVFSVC
Put plainly: TYK2 inhibition assay. Particulars: recombinant human TYK2 catalytic domain, polyGT substrate. It counts as biochemical. An outline of the steps: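 Radiometric kinase reaction run 90 min at 30 °C, stopped with phosphoric acid, washed and scintillation-counted.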

A further test addresses T2, human JAK2 (Homo sapiens, UniProt O60674).
T2 construct: catalytic domain (amino acids 808-1132; catalog number PV4210); GST; purchased Invitrogen PV4210
The test can be described thus: JAK2 inhibition assay (polyGT substrate / Ulight-JAK1 peptide). Particulars: recombinant human JAK2 catalytic domain; polyGT or Ulight-JAK1 peptide assay. It counts as biochemical. A digest of the protocol:
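Radiometric: 0.025 mU JAK2 with 2.5 μg polyGT, 1 μM ATP plus ^33P-ATP in MOPS pH 7.5 buffer, 1% DMSO, 90 min at 30° C.; filter counting. Alternative TR-FRET format with Ulight-JAK1 peptide, 60 min at room temperature, Eu-anti-phosphotyrosine detection.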

For another test, the target named is T3, human JAK3 (Homo sapiens, UniProt P52333).
T3 construct: catalytic domain (amino acids 781-1124; catalog number PV3855); purchased Invitrogen PV3855
Put plainly: JAK3 inhibition assay. Particulars: recombinant human JAK3 catalytic domain; polyGT substrate. It counts as biochemical. A digest of the protocol:
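Radiometric kinase assay: 0.5 ng JAK3 with 2.5 μg polyGT in Tris pH 7.5/MgCl2 buffer, 1 μM ATP plus 0.25 μCi 33P-γ-ATP, 1% DMSO, 45 min at 30 °C, stopped with phosphoric acid.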

In another test the target is T4, human JAK1 (Homo sapiens, UniProt P23458).
T4 construct: catalytic domain, amino acids 866-1154; catalog number PV4774; purchased Invitrogen PV4774
Put plainly: JAK1 inhibition assay (polyGT substrate / Ulight-JAK1 peptide). It counts as biochemical. The following applies: recombinant human JAK1 catalytic domain; polyGT or Ulight-JAK1 peptide assay. A digest of the protocol:
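Two formats. PolyGT radiometric: 45 min at 30 °C, stopped with phosphoric acid, counted as cpm. Ulight-JAK1 peptide: 60 min at room temperature, stopped with Eu-anti-phosphotyrosine/EDTA, read as RFU. Percent inhibition normalised to vehicle and 10 μM staurosporine.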

T4 sequence (P23458 866-1154): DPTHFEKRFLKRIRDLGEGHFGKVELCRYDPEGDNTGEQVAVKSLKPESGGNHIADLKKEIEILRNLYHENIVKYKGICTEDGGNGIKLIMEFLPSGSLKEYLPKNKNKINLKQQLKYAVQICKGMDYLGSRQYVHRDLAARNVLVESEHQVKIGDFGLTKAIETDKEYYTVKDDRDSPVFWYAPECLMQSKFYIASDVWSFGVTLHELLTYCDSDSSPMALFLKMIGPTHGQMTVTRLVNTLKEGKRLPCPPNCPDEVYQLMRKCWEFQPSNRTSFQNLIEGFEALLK
T3 sequence (P52333 781-1124): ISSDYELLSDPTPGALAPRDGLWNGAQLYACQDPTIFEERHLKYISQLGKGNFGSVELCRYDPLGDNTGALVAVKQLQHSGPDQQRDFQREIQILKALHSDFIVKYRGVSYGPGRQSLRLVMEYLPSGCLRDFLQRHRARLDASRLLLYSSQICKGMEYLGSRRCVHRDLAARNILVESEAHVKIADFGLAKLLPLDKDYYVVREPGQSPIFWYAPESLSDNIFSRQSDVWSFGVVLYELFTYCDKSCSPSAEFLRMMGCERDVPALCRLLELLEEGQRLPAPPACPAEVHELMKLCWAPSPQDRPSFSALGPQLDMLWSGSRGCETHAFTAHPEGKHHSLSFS
T2 sequence (O60674 808-1132): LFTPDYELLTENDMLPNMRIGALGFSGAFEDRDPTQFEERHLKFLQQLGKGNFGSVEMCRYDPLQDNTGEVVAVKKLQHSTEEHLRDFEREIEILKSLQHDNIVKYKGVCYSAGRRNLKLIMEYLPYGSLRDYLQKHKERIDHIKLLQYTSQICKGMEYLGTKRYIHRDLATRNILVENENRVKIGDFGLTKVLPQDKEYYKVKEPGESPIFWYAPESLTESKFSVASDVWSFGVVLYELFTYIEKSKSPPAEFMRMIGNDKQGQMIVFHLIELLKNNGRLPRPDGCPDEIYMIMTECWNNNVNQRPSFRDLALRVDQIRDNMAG

Regarding `CCc1cc(C(C#N)N2CCC(F)(F)C2)ccc1N(C)c1cc2c(cn1)ncn2C` (stereo not shown) [Compound 441, (3,3-Difluoro-pyrrolidin-1-yl)-{3-ethyl-4-[methyl-(1-methyl-1H-imidazol[4,5-d]pyridin-6-yl)-amino]-phenyl}-acetonitrile], the IC50 is over 1000 nM in the test on CTLL-2 cell line; 0.01 to 100 nM on human TYK2; 0.01 to 100 nM on human JAK2; 101 to 500 nM at human JAK3; 0.01 to 100 nM at human JAK1.

Regarding `CCc1cc(CNS(N)(=O)=O)ccc1N(C)c1cc2c(cn1)ncn2C` [Compound 423, N-{3-Ethyl-4-[methyl-(1-methyl-1H-imidazo[4,5-c]pyridin-6-yl)-amino]-benzyl}-aminosulfonamide], the IC50 in the test on CTLL-2 cell line was over 1000 nM; on human TYK2, 0.01 to 100 nM; on human JAK2, 0.01 to 100 nM; at human JAK3, 0.01 to 100 nM; at human JAK1, 0.01 to 100 nM.

Regarding `CCc1cc(C(C#N)N2CCC(C#N)C2)ccc1N(C)c1cc2c(cn1)ncn2C` (stereo not shown) [Compound 445, 1-(Cyano-{3-ethyl-4-[methyl-(1-methyl-1H-imidazo[4,5-c]pyridin-6-yl)-amino]-phenyl}-methyl)-pyrrolidine-3-carbonitrile], the IC50 is over 1000 nM with CTLL-2 cell line; 0.01 to 100 nM on human TYK2; 0.01 to 100 nM on human JAK2; 101 to 500 nM at human JAK3; 0.01 to 100 nM on human JAK1.

For `CCc1cc(C(C#N)N2CCC(CO)CC2)ccc1N(C)c1cc2c(cn1)ncn2C` (stereo not shown) [Compound 437, {3-Ethyl-4-[methyl-(1-methyl-1H-imidazo[4,5-c]pyridin-6-yl)-amino]-phenyl}-(4-hydroxymethyl-piperidin-1-yl)-acetonitrile], the IC50 with CTLL-2 cell line is over 1000 nM; at human TYK2, 0.01 to 100 nM; at human JAK2 it was 0.01 to 100 nM; at human JAK3 it was 101 to 500 nM; at human JAK1, 0.01 to 100 nM.

Consider `CCc1cc(C(C#N)N2CC(F)(F)C2)ccc1N(C)c1cc2c(cn1)ncn2C` (stereo not shown) [Compound 440, (3,3-Difluoro-azetidin-1-yl)-{3-ethyl-4-[methyl-(1-methyl-1H-imidazo[4,5-c]pyridin-6-yl)-amino]-phenyl}-acetonitrile], for which the IC50 with CTLL-2 cell line is over 1000 nM; at human TYK2, 0.01 to 100 nM; at human JAK2, 0.01 to 100 nM; at human JAK3, 101 to 500 nM; at human JAK1, 0.01 to 100 nM.

Turning to `CCc1cc(C(C#N)N2CCC(C(N)=O)CC2)ccc1N(C)c1cc2c(cn1)ncn2C` (stereo not shown) [Compound 451, 1-(Cyano-{3-ethyl-4-[methyl-(1-methyl-1H-imidazo[4,5-c]pyridin-6-yl)-amino]-phenyl}-methyl)-piperidine-4-carboxylic acid amide], the IC50 with CTLL-2 cell line is over 1000 nM; on human TYK2, 0.01 to 100 nM; at human JAK2, 0.01 to 100 nM; on human JAK3 it was 101 to 500 nM; at human JAK1 it was 0.01 to 100 nM.

`CCc1cc(CN2CCC(S(C)(=O)=O)C2)ccc1N(C)c1cc2c(cn1)ncn2C` (stereo not shown) [Compound 420, [2-Ethyl-4-(3-methanesulfonyl-pyrrolidin-1-ylmethyl)-phenyl]-methyl-(1-methyl-1H-imidazo[4,5-c]pyridin-6-yl)-amine]: the IC50 was over 1000 nM in the test on CTLL-2 cell line; 101 to 500 nM at human TYK2; 101 to 500 nM at human JAK2; over 1000 nM on human JAK3; 0.01 to 100 nM at human JAK1.

As to `CCc1cc(C(C#N)N2CC(C)(C)C2)ccc1N(C)c1cc2c(cn1)ncn2C` (stereo not shown) [Compound 446, (3,3-Dimethyl-azetidin-1-yl)-{3-ethyl-4-[methyl-(1-methyl-1H-imidazo[4,5-c]pyridin-6-yl)-amino]-phenyl}-acetonitrile], the IC50 is over 1000 nM in the test on CTLL-2 cell line; 0.01 to 100 nM at human TYK2; 0.01 to 100 nM at human JAK2; 501 to 1000 nM on human JAK3; 0.01 to 100 nM on human JAK1.
